Like-named read-outs stand apart in the source and are kept apart here.
Assays:
[1] = system: HeLa-MaTu-ADR cell line; assay: Proliferation assay (HeLa-MaTu-ADR cell line); format: cell-based; settings: 96 h, read-out: Biological Assay 2: Proliferation assay (HeLa-MaTu-ADR cell line) median IC50
Protocol: (§1) Cultivated tumor cells (cells were ordered from ATCC, except HeLa-MaTu and HeLa-MaTu-ADR, which were ordered from EPO-GmbH, Berlin) were plated at a density of 1000 to 5000 cells/well, depending on the growth rate of the respective cell line, in a 96-well multititer plate in 200 μL of their respective growth medium supplemented 10% fetal calf serum. After 24 hours, the cells of one plate (zero-point plate) were stained with crystal violet (see below), while the medium of the other plates was replaced by fresh culture medium (200 μL), to which the test substances were added in various concentrations (0 μM, as well as in the range of 0.001-10 μM; the final concentration of the solvent dimethyl sulfoxide was 0.5%). The cells were incubated for 4 days in the presence of test substances. Cell proliferation was determined by staining the cells with crystal violet: the cells were fixed by adding 20 μL/measuring point of an 11% glutaric aldehyde solution for 15 minutes at room temperature. After three washing cycles of the fixed cells with water, the plates were dried at room temperature. The cells were stained by adding 100 μL/measuring point of a 0.1% crystal violet solution (pH 3.0). After three washing cycles of the stained cells with water, the plates were dried at room temperature. The dye was dissolved by adding 100 μl/measuring point of a 10% acetic acid solution. Absorbtion was determined by photometry at a wavelength of 595 nm. The change of cell number, in percent, was calculated by normalization of the measured values to the absorbtion values of the zero-point plate (=0%) and the absorbtion of the untreated (0 μm) cells (=100%). The IC50 values were determined by means of a 4 parameter fit.

[2] = system: Caco2 cell line; assay: Proliferation assay (Caco2 cell line); format: cell-based; settings: Homo sapiens, Caco-2, 96 h, read-out: Biological Assay 2: Proliferation assay (Caco2 cell line) median IC50
Protocol: as §1

[3] = system: B16F10 cell line; assay: Proliferation assay (B16F10 cell line); format: cell-based; settings: Mus musculus, B16-F10, 96 h, read-out: Biological Assay 2: Proliferation assay (B16F10 cell line) median IC50
Protocol: as §1

[4] = system: DU145 cell line; assay: Proliferation assay (DU145 cell line); format: cell-based; settings: Homo sapiens, DU-145, 96 h, read-out: Biological Assay 2: Proliferation assay (DU145 cell line) median IC50
Protocol: as §1

[5] = system: NCl-H460 cell line; assay: Proliferation assay (NCI-H460 cell line); format: cell-based; settings: Homo sapiens, NCI-H460, 96 h, read-out: Biological Assay 2: Proliferation assay (NCl-H460 cell line) median IC50
Protocol: as §1

[6] = biological target: T1, catalytic domain of human Bub1 (amino acids 704-1085) (Homo sapiens, UniProt O43683); assay: Bub1 kinase assay (TR-FRET); format: biochemical
T1 construct: catalytic domain of human Bub1 (amino acids 704-1085); His6 (N); made in house; host or cells: Hi5 insect cells
T1 sequence (O43683 704-1085): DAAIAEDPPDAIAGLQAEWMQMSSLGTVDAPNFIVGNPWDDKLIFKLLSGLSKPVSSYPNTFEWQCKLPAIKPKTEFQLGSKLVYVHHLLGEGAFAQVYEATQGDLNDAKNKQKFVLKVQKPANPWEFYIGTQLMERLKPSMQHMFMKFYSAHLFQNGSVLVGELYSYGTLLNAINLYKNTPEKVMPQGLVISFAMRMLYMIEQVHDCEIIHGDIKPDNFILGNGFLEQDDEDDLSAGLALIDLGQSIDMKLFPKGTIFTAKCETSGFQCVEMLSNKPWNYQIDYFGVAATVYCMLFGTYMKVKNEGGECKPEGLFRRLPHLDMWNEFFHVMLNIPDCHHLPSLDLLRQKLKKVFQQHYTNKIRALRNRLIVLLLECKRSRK

[7] = system: HeLa cell line; assay: Proliferation assay (HeLa cell line); format: cell-based; settings: Homo sapiens, 96 h, read-out: Biological Assay 2: Proliferation assay (HeLa cell line) median IC50
[8] = 10 μM ATP, 1 μM peptide substrate, TR-FRET, read-out: Biological Assay 1: Bub1 kinase assay median IC50

IC50 [1] [nM] | IC50 [2] [nM] | IC50 [3] [nM] | IC50 [4] [nM] | IC50 [5] [nM] | IC50 [6, 8] [nM] | IC50 [7] [nM] | IC50 ([1]; HeLa-MaTu-ADR, 4 days incubation, crystal violet staining) [nM] | IC50 ([2]; Caco2, 4 days incubation, crystal violet staining) [nM] | IC50 ([3]; B16F10, 4 days incubation, crystal violet staining) [nM] | IC50 ([4]; DU145, 4 days incubation, crystal violet staining) [nM] | IC50 ([5]; NCl-H460, 4 days incubation, crystal violet staining) [nM] | IC50 [6] [nM] | IC50 ([7]; 4 days incubation, crystal violet staining) [nM] | SMILES
1100 | 1400 | 1200 | 2800 | 1500 | 48 | 1700 | – | – | – | – | – | – | – | CCNC(=O)Nc1cc(Nc2ccncc2)nc(-c2nn(Cc3c(F)cc(OCC)cc3F)c(C3CC3)c2C)n1 [Example 2-1-10, 1-{2-[5-cyclopropyl-1-(4-ethoxy-2,6-difluorobenzyl)-4-methyl-1H-pyrazol-3-yl]-6-(pyridin-4-ylamino)pyrimidin-4-yl}-3-ethylurea]
700 | 2600 | 500 | 2100 | 1600 | 20 | 560 | – | – | – | – | – | – | – | CCOc1cc(F)c(Cn2nc(-c3nc(Nc4ccncn4)cc(Nc4ccncn4)n3)c(C)c2C2CC2)c(F)c1 [Example 2-2-3, 2-[5-cyclopropyl-1-(4-ethoxy-2,6-difluorobenzyl)-4-methyl-1H-pyrazol-3-yl]-N,N′-di(pyrimidin-4-yl)pyrimidine-4,6-diamine]
– | – | – | – | – | – | – | 820 | 2600 | 990 | 1900 | 1100 | 220 | 7000 | CCOc1cc(F)c(Cn2nc(-c3nc(Nc4ccncc4)c(N4CCOCC4)c(Nc4ccncc4)n3)c(C)c2C2CC2)c(F)c1 [Example 2-2-6, 2-[5-cyclopropyl-1-(4-ethoxy-2,6-difluorobenzyl)-4-methyl-1H-pyrazol-3-yl]-5-(morpholin-4-yl)-N,N′-di(pyridin-4-yl)pyrimidine-4,6-diamine]
3500 | 1900 | 1800 | 6900 | 7400 | 5.3 | 5100 | – | – | – | – | – | – | – | CCOc1cc(F)c(Cn2nc(-c3nc(N)c(OC)c(Nc4ccncn4)n3)c(C)c2C2CC2)c(F)c1 [Example 2-1-5, 2-[5-cyclopropyl-1-(4-ethoxy-2,6-difluorobenzyl)-4-methyl-1H-pyrazol-3-yl]-5-methoxy-N-(pyrimidin-4-yl)pyrimidine-4,6-diamine]

Reference: US20160145267A1, “HETEROARYL SUBSTITUTED PYRAZOLES” (BAYER PHARMA AKTIENGESELLSCHAFT, priority 2013, published 2016)
